Source: patent US20230265151A1, “GIP/GLP1 CO-AGONIST COMPOUNDS” (priority 2020, published 2023)
Where two headings read alike, the source gives them in different places.

Experiments:
[1] = molecular target: T1, human GLP-1 receptor (hGLP-1R) (Homo sapiens, UniProt P43220); assay: [125I]-GLP-1 binding, SPA with membranes of HEK293 cells expressing hGLP-1R
T1 construct: expressed in transfected cells; crude membranes

hGLP-1R = hGLP-1R (Homo sapiens, UniProt P43220); assay: Functional cAMP formation (HTRF) in HEK-293 clonal cells expressing hGLP-1R, 0.1% bovine casein, without or with 1.0% human serum albumin; assay type: cell-based; design: expressed in transfected cells; conditions: for Emax: percent of maximal response to GLP-1(7-36)NH2; for EC50: cAMP, 0.1% bovine casein (no human serum albumin), geometric mean
Summary of the method: (§1)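 Cells were stimulated with peptide for 30 min at 37° C, then intracellular cAMP was measured by competitive HTRF (665/620 nm ratio) and converted to nM using a cAMP standard curve. Relative EC50 and Emax came from four-parameter logistic fits of percent maximal response against peptide concentration.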

hGCGR = molecular target: T2, hGCGR (Homo sapiens, UniProt P47871); assay: Functional cAMP formation (HTRF) in HEK-293 clonal cells expressing hGCGR, 0.1% bovine casein, without or with 1.0% human serum albumin; assay type: cell-based
T2 construct: expressed in transfected cells
Summary of the method: as §1

[2] = molecular target: T3, human GIP receptor (hGIPR) (Homo sapiens, UniProt P48546); assay: [125I]-GIP binding, SPA with membranes of CHO cells expressing hGIPR
T3 construct: expressed in transfected cells; crude membranes
T3 sequence (P48546 22-466): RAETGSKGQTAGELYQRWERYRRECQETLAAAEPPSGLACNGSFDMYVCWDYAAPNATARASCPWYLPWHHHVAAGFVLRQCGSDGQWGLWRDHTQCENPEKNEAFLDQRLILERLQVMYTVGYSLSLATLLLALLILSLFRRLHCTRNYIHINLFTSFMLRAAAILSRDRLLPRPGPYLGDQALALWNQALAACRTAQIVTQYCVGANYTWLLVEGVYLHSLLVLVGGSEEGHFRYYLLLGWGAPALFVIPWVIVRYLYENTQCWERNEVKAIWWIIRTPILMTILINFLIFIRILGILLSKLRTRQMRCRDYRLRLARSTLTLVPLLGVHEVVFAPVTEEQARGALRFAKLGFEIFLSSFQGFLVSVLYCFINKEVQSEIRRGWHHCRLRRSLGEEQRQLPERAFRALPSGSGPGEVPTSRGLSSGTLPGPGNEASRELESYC

hGIPR = molecular target: T4, hGIPR (Homo sapiens, UniProt P48546); assay: Functional cAMP formation (HTRF) in HEK-293 clonal cells expressing hGIPR, 0.1% bovine casein, without or with 1.0% human serum albumin; assay type: cell-based; conditions: for EC50: cAMP
T4 construct: expressed in transfected cells
T4 sequence (P48546 22-466): T3 sequence (P48546 22-466)
Summary of the method: as §1

[3] = HEK293, read-out: hGLP-1R Emax, % ± SEM, cAMP, 37° C., 0.1% bovine casein, arithmetic mean
[4] = hGLP-1R EC50, nM (SEM, n), 37° C.
[5] = hGCGR EC50, nM (SEM, n), cAMP, 37° C., 0.1% bovine casein (no human serum albumin), geometric mean
[6] = hGCGR EC50, nM (SEM, n), cAMP, 37° C., 0.1% bovine casein and 1.0% human serum albumin, geometric mean (SEM, n)
[7] = hGIPR EC50, nM (SEM, n), 37° C., 0.1% bovine casein (no human serum albumin), geometric mean
[8] = human GLP-1R, geometric mean (SEM, n), read-out: Binding Affinity Ki, nM (SEM, n) hGLP-1R
[9] = human GIPR, geometric mean (SEM, n), read-out: Binding Affinity Ki, nM (SEM, n) hGIPR

hGLP-1R, sequence (P43220 24-463): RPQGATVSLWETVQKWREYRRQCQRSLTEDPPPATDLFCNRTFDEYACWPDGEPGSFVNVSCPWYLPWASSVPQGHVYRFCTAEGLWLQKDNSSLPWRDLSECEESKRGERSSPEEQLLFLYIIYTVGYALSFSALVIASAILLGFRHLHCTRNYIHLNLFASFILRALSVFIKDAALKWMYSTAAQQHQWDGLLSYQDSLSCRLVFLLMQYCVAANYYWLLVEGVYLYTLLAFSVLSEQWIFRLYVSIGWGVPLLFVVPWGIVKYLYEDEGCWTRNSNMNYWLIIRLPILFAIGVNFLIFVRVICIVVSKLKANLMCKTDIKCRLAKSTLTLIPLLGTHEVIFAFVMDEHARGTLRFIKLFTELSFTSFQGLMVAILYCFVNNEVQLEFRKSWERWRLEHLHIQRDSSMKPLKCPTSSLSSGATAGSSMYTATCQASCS
T1 sequence (P43220 24-463): as above
T2 sequence (P47871 26-477): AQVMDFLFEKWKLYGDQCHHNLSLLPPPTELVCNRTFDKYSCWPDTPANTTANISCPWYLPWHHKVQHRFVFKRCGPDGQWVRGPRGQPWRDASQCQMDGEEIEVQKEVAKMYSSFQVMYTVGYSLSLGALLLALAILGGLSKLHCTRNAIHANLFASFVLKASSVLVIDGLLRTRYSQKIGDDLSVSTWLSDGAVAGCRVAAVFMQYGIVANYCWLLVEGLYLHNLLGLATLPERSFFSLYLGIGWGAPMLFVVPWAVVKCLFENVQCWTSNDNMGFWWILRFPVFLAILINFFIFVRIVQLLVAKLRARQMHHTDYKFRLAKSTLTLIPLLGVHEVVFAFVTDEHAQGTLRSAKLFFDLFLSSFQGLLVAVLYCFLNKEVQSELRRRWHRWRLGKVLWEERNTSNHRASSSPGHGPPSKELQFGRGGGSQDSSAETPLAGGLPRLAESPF

SMILES | Ki [1] [nM] | Emax (hGLP-1R; [3]) [%] | EC50 (hGLP-1R; [4]) [nM] | EC50 (hGCGR; [5]) [nM] | EC50 (hGCGR; [6]) [nM] | Ki [2] [nM] | EC50 (hGIPR; [7]) [nM] | Ki [1, 8] [nM] | Ki [2, 9] [nM] | further results
CC[C@H](C)[C@H](NC(=O)[C@H](CC(C)C)NC(=O)[C@](C)(Cc1ccc(O)cc1)NC(=O)[C@H](CCCCNC(=O)COCCOCCNC(=O)CC[C@H](NC(=O)CCCCCCCCCOc1ccc(C(=O)O)cc1)C(=O)O)NC(=O)[C@@H](NC(=O)[C@H](Cc1ccccc1)NC(=O)[C@H](CCCN)NC(=O)C(C)(C)NC(=O)[C@H](CCC(N)=O)NC(=O)[C@H](C)NC(=O)[C@H](CCC(N)=O)NC(=O)[C@H](CCCN)NC(=O)[C@H](CC(=O)O)NC(=O)[C@H](CC(C)C)NC(=O)[C@](C)(CC(C)C)NC(=O)[C@@H](NC(=O)C(C)(C)NC(=O)[C@H](Cc1ccncc1)NC(=O)[C@H](CC(=O)O)NC(=O)[C@H](CO)NC(=O)[C@@H](NC(=O)[C@](C)(Cc1ccccc1F)NC(=O)[C@@H](NC(=O)CNC(=O)[C@H](CCC(=O)O)NC(=O)C(C)(C)NC(=O)[C@@H](N)Cc1ccc(O)cc1)[C@@H](C)O)[C@@H](C)O)[C@@H](C)CC)[C@@H](C)CC)C(=O)N[C@@H](CCCCNC(=O)COCCOCCNC(=O)CC[C@H](NC(=O)CCCCCCCCCOc1ccc(C(=O)O)cc1)C(=O)O)C(=O)NCC(=O)NCC(=O)N1CCC[C@H]1C(=O)N[C@@H](CO)C(=O)N[C@@H](CO)C(=O)NCC(=O)N[C@@H](C)C(=O)N1CCC[C@H]1C(=O)N1CCC[C@H]1C(=O)N1CCC[C@H]1C(=O)N[C@@H](CO)C(N)=O [Example 463] | 0.143 | 111 | 0.267 | > 9950 | > 9950 | 0.0183 | 0.0124 | – | – | Emax (hGIPR; HEK293, read-out: hGIPR Emax, % ± SEM, cAMP, 37° C., 0.1% bovine casein, percent of maximal response to GIP(1-42)NH2, arithmetic mean): 91.4%; EC50 (hGIPR; hGIPR EC50, nM (SEM, n), 37° C., 0.1% bovine casein and 1.0% human serum albumin, geometric mean (SEM, n)): 0.35 nM
CC[C@H](C)[C@H](NC(=O)[C@H](CC(C)C)NC(=O)[C@](C)(Cc1ccc(O)cc1)NC(=O)[C@H](CCCCNC(=O)CCOCCOCCOCCNC(=O)CC[C@H](NC(=O)CCCCCCCCCOc1ccc(C(=O)O)cc1)C(=O)O)NC(=O)[C@@H](NC(=O)[C@H](Cc1ccccc1)NC(=O)[C@H](CCCN)NC(=O)C(C)(C)NC(=O)[C@H](CCC(N)=O)NC(=O)[C@H](C)NC(=O)[C@H](CCC(N)=O)NC(=O)[C@H](CCCN)NC(=O)[C@H](CC(=O)O)NC(=O)[C@H](CC(C)C)NC(=O)[C@](C)(CC(C)C)NC(=O)[C@@H](NC(=O)C(C)(C)NC(=O)[C@H](Cc1ccncc1)NC(=O)[C@H](CC(=O)O)NC(=O)[C@H](CO)NC(=O)[C@@H](NC(=O)[C@](C)(Cc1ccccc1F)NC(=O)[C@@H](NC(=O)CNC(=O)[C@H](CCC(=O)O)NC(=O)C(C)(C)NC(=O)[C@@H](N)Cc1ccc(O)cc1)[C@@H](C)O)[C@@H](C)O)[C@@H](C)CC)[C@@H](C)CC)C(=O)N[C@@H](CCCCNC(=O)CCOCCOCCOCCNC(=O)CC[C@H](NC(=O)CCCCCCCCCOc1ccc(C(=O)O)cc1)C(=O)O)C(=O)NCC(=O)NCC(=O)N1CCC[C@H]1C(=O)N[C@@H](CO)C(=O)N[C@@H](CO)C(=O)NCC(=O)N[C@@H](C)C(=O)N1CCC[C@H]1C(=O)N1CCC[C@H]1C(=O)N1CCC[C@H]1C(=O)N[C@@H](CO)C(N)=O [Example 462] | 0.125 | 113 | 0.189 | > 9950 | > 9950 | 0.0102 | 0.0128 | – | – | –
CC[C@H](C)[C@H](NC(=O)[C@H](CC(C)C)NC(=O)[C@](C)(Cc1ccc(O)cc1)NC(=O)[C@H](CCCCNC(=O)COCCOCCNC(=O)CC[C@H](NC(=O)COCCOCCNC(=O)CC[C@H](NC(=O)CCCCCCCCCCCCC(=O)O)C(=O)O)C(=O)O)NC(=O)[C@@H](NC(=O)[C@H](Cc1ccccc1)NC(=O)[C@H](CCCN)NC(=O)C(C)(C)NC(=O)[C@H](CCC(N)=O)NC(=O)[C@H](C)NC(=O)[C@H](CCC(N)=O)NC(=O)[C@H](CCCN)NC(=O)[C@H](CC(=O)O)NC(=O)[C@H](CC(C)C)NC(=O)[C@](C)(CC(C)C)NC(=O)[C@@H](NC(=O)C(C)(C)NC(=O)[C@H](Cc1ccncc1)NC(=O)[C@H](CC(=O)O)NC(=O)[C@H](CO)NC(=O)[C@@H](NC(=O)[C@](C)(Cc1ccccc1F)NC(=O)[C@@H](NC(=O)CNC(=O)[C@H](CCC(=O)O)NC(=O)C(C)(C)NC(=O)[C@@H](N)Cc1ccc(O)cc1)[C@@H](C)O)[C@@H](C)O)[C@@H](C)CC)[C@@H](C)CC)C(=O)N[C@@H](CCCCNC(=O)COCCOCCNC(=O)CC[C@H](NC(=O)COCCOCCNC(=O)CC[C@H](NC(=O)CCCCCCCCCCCCC(=O)O)C(=O)O)C(=O)O)C(=O)NCC(=O)NCC(=O)N1CCC[C@H]1C(=O)N[C@@H](CO)C(=O)N[C@@H](CO)C(=O)NCC(=O)N[C@@H](C)C(=O)N1CCC[C@H]1C(=O)N1CCC[C@H]1C(=O)N1CCC[C@H]1C(=O)N[C@@H](CO)C(N)=O [Example 484] | – | – | – | – | – | – | – | 0.268 | 0.0296 | Emax (hGLP-1R; HEK293, cAMP, 37° C., 0.1% bovine casein, arithmetic mean, read-out: hGLP-1R Emax, % ± SEM): 118%; EC50 (hGLP-1R; 37° C., read-out: hGLP-1R EC50, nM (SEM, n)): 0.17 nM; EC50 (hGCGR; cAMP, 37° C., 0.1% bovine casein (no human serum albumin), geometric mean, read-out: hGCGR EC50, nM (SEM, n)): > 9950 nM; EC50 (hGCGR; cAMP, 37° C., 0.1% bovine casein and 1.0% human serum albumin, geometric mean (SEM, n), read-out: hGCGR EC50, nM (SEM, n)): > 9950 nM; Emax (hGIPR; HEK293, cAMP, 37° C., 0.1% bovine casein and 1.0% human serum albumin, percent of maximal response to GIP(1-42)NH2, read-out: hGIPR Emax, % ± SEM): 91.3%; EC50 (hGIPR; 37° C., 0.1% bovine casein (no human serum albumin), geometric mean, read-out: hGIPR EC50, nM (SEM, n)): 0.0136 nM; EC50 (hGIPR; 37° C., 0.1% bovine casein and 1.0% human serum albumin, geometric mean (SEM, n), read-out: hGIPR EC50, nM (SEM, n)): 0.453 nM
CC[C@H](C)[C@H](NC(=O)[C@H](CC(C)C)NC(=O)[C@](C)(Cc1ccc(O)cc1)NC(=O)[C@@H](CCC(=O)O)NC(=O)[C@@H](NC(=O)[C@H](Cc1ccccc1)NC(=O)[C@H](CCC(=O)O)NC(=O)C(C)(C)NC(=O)[C@H](CCC(N)=O)NC(=O)[C@H](C)NC(=O)[C@H](CCCCNC(=O)COCCOCCNC(=O)COCCOCCNC(=O)CC[C@H](NC(=O)CCCCCCCCCCCCC(=O)O)C(=O)O)NC(=O)[C@H](CCCN)NC(=O)[C@H](CC(=O)O)NC(=O)[C@H](CC(C)C)NC(=O)[C@](C)(CC(C)C)NC(=O)[C@@H](NC(=O)[C@H](CO)NC(=O)[C@H](Cc1ccc2ccccc2c1)NC(=O)[C@H](CC(=O)O)NC(=O)[C@H](CO)NC(=O)[C@@H](NC(=O)[C@](C)(Cc1ccccc1F)NC(=O)[C@@H](NC(=O)CNC(=O)[C@H](CCC(=O)O)NC(=O)C(C)(C)NC(=O)[C@@H](N)Cc1ccc(O)cc1)[C@@H](C)O)[C@@H](C)O)[C@@H](C)CC)[C@@H](C)CC)C(=O)N[C@@H](CCC(=O)O)C(=O)NCC(=O)NCC(=O)N[C@@H](CCCCNC(=O)COCCOCCNC(=O)COCCOCCNC(=O)CC[C@H](NC(=O)CCCCCCCCCCCCC(=O)O)C(=O)O)C(=O)N[C@@H](CO)C(=O)N[C@@H](CO)C(=O)NCC(=O)N[C@@H](C)C(=O)N1CCC[C@H]1C(=O)N1CCC[C@H]1C(=O)N1CCC[C@H]1C(=O)N[C@@H](CO)C(N)=O [Example 57] | – | – | – | – | – | – | – | 4.35 | 0.297 | Emax (hGLP-1R; HEK293, 0.1% bovine casein and 1.0% human serum albumin, 37° C., read-out: hGLP-1R Emax, % ± SEM): 114 ± 7.39%; EC50 (hGLP-1R; incubated at 37° C., read-out: hGLP-1R EC50, nM (SEM, n)): 0.14 nM; EC50 (hGCGR; 0.1% bovine casein and 1.0% human serum albumin, 37° C., geometric mean, read-out: hGCGR EC50, nM (SEM, n)): > 9950 nM; EC50 (hGCGR; cAMP, incubated at 37° C., 0.1% bovine casein (no human serum albumin), geometric mean, read-out: hGCGR EC50, nM (SEM, n)): > 9950 nM; Emax (hGIPR; HEK293, 0.1% bovine casein and 1.0% human serum albumin, 37° C., percent of maximal response to GIP(1-42)NH2, read-out: hGIPR Emax, % ± SEM): 92.1 ± 5.54%; Emax (hGIPR; HEK293, percent of maximal response to GIP(1-42)NH2, 37° C., 0.1% bovine casein, arithmetic mean, read-out: hGIPR Emax, % ± SEM): 91.5 ± 4.94%; EC50 (hGIPR; incubated at 37° C., 0.1% bovine casein (no human serum albumin), geometric mean, read-out: hGIPR EC50, nM (SEM, n)): 0.0135 nM
